Numbered stars: 1 amine (or outer) side, 2 acyl side, 3 side chain; on linkers, the order of the positions; unused ones are H or OH. Square brackets hold non-standard residues; d marks the D form. Side chains are listed from the residue outwards. Peptide text beside a SMILES is read from it. * marks the point of attachment. C18 diacid = O=C(O)CCCCCCCCCCCCCCCCC(=O)*; γGlu = O=C(O)[C@H](CCC(=O)[*:2])N[*:1]; AEEA = NCCOCCOCC(=O)O; Aib = CC(C)(N)C(=O)O

One may read the IC50 as the point on the concentration scale where inhibition reaches its midpoint.

In one data set the target is T1, human GLP-1 receptor (Homo sapiens, UniProt P43220).
T1 construct: expressed in transfected cells; host or cells: BHK cells (parent BHKTS13), clone FCW467-12A/KZ10-1, with CRE luciferase
T1 sequence (P43220 24-463): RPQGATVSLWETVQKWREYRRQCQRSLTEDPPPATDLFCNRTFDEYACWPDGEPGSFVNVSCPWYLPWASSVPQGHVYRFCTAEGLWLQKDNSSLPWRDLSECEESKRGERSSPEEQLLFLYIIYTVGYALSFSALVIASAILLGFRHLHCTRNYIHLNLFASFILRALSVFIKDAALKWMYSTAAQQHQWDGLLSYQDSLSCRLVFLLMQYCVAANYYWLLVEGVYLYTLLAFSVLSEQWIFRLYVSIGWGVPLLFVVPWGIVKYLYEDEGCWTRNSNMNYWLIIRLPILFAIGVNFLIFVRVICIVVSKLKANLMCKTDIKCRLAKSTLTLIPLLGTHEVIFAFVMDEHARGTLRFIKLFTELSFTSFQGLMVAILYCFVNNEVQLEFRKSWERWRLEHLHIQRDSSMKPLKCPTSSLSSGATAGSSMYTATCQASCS
The data set can be described thus: GLP-1 receptor binding, 125I-GLP-1 displacement SPA on isolated membranes. To be noted: displacement of 125I-GLP-1 from membranes; read-out: IC50 GLP-1R. The method in brief:
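SPA displacement of 125I-GLP-1(7-36)NH2 from membranes of BHK cells expressing human GLP-1 receptor, with WGA beads, in 50 mM HEPES, 5 mM EGTA, 5 mM MgCl2, 0.005% Tween 20, pH 7.4. Incubated 2 h at 30°C; IC50 by non-linear regression, run at ≤0.001% or 2.0% final serum albumin.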
(In general: In a radioligand displacement assay an active substance lowers the binding of a labelled ligand.)

Data set [1] is described as follows: Chemical stability assessment by RP-UPLC. The data set is classed as physicochemical. As to conditions: 333 μM, 8 mM phosphate buffer pH 7.3, 37° C. vs 5° C. The method in brief:
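Purity loss = (purity after 14 days at 5° C. minus that at 37° C.) relative to the 5° C. value, purity being main-peak area % by RP-UPLC with UV at 215 nm. Samples were 333 μM in 8 mM phosphate, pH 7.3; gradient adjusted for outlying retention times.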

As to `CC(C)C[C@H](NC(=O)[C@H](Cc1ccc(O)cc1)NC(=O)[C@H](CCCCN)NC(=O)[C@H](CO)NC(=O)[C@H](CC(C)C)NC(=O)[C@H](CC(=O)O)NC(=O)[C@H](CO)NC(=O)[C@@H](NC(=O)[C@H](Cc1ccccc1)NC(=O)[C@@H](NC(=O)CNC(=O)[C@H](CCC(N)=O)NC(=O)C(C)(C)NC(=O)[C@@H](N)Cc1c[nH]cn1)[C@@H](C)O)[C@@H](C)O)C(=O)N[C@@H](CCC(=O)O)C(=O)N[C@@H](CO)C(=O)N[C@@H](CCCCN)C(=O)N[C@@H](CCCNC(=N)N)C(=O)N[C@@H](C)C(=O)N[C@@H](CCCNC(=N)N)C(=O)N[C@@H](CCC(=O)O)C(=O)N[C@@H](Cc1ccccc1)C(=O)N[C@H](C(=O)N[C@@H](CCC(N)=O)C(=O)N[C@@H](Cc1c[nH]c2ccccc12)C(=O)N[C@@H](CC(C)C)C(=O)N[C@@H](CC(C)C)C(=O)N[C@@H](CCCCNC(=O)CC[C@H](NC(=O)CC[C@H](NC(=O)[C@H](CO)NC(=O)[C@H](CCC(=O)O)NC(=O)[C@H](CO)NC(=O)CC[C@H](NC(=O)CC[C@H](NC(=O)CCCCCCCCCCCCCCCCC(=O)O)C(=O)O)C(=O)O)C(=O)O)C(=O)O)C(=O)N[C@H](C(N)=O)[C@@H](C)O)C(C)C` [Example 54, N^ε28-[(4S)-4-carboxy-4-[[(4S)-4-carboxy-4-[[(2S)-2-[[(2S)-4-carboxy-2-[[(2S)-2-[[(4S)-4-carboxy-4-[[(4S)-4-carboxy-4-(17-carboxyheptadecanoylamino)butanoyl]amino]butanoyl]amino]-3-hydroxypropanoyl]amino]butanoyl]amino]-3-hydroxypropanoyl]amino]butanoyl]amino]butanoyl]-[Aib2,Leu10,Glu15,Lys17,Arg20,Glu21,Leu27,Lys28]-Glucagon amide] (H-H[Aib]QGTFTSDLSKYLESKRAREFVQWLLK([γGlu-γGlu-Ser-Glu-Ser-γGlu-γGlu-C18 diacid])T-NH2; N-terminus assumed), the IC50 at human GLP-1 receptor turned out to be 0.2 nM. The “Purity loss; 14 days at 37° C.” value in data set [1] was determined as 1%.
On to `CC(C)C[C@H](NC(=O)[C@H](CC(=O)O)NC(=O)[C@H](CC(C)C)NC(=O)[C@H](Cc1ccc(O)cc1)NC(=O)[C@H](CCCCN)NC(=O)[C@H](CO)NC(=O)[C@H](CC(C)C)NC(=O)[C@H](CC(=O)O)NC(=O)[C@H](CO)NC(=O)[C@@H](NC(=O)[C@H](Cc1ccccc1)NC(=O)[C@@H](NC(=O)CNC(=O)[C@H](CCC(N)=O)NC(=O)C(C)(C)NC(=O)[C@@H](N)Cc1c[nH]cn1)[C@@H](C)O)[C@@H](C)O)C(=O)N[C@@H](CCCNC(=N)N)C(=O)N[C@@H](CCCNC(=N)N)C(=O)N[C@@H](C)C(=O)N[C@@H](CCCNC(=N)N)C(=O)N[C@@H](CC(=O)O)C(=O)N[C@@H](Cc1ccccc1)C(=O)N[C@H](C(=O)N[C@@H](CCC(N)=O)C(=O)N[C@@H](Cc1c[nH]c2ccccc12)C(=O)N[C@@H](CC(C)C)C(=O)N[C@@H](CC(C)C)C(=O)N[C@@H](CCCCNC(=O)CNC(=O)[C@H](CO)NC(=O)[C@H](CCC(=O)O)NC(=O)[C@H](CO)NC(=O)CC[C@H](NC(=O)CC[C@H](NC(=O)CCCCCCCCCCCCCCCCC(=O)O)C(=O)O)C(=O)O)C(=O)N[C@H](C(N)=O)[C@@H](C)O)C(C)C` [Example 55, N^ε28-[2-[[(2S)-2-[[(2S)-4-carboxy-2-[[(2S)-2-[[(4S)-4-carboxy-4-[[(4S)-4-carboxy-4-(17-carboxyheptadecanoylamino)butanoyl]amino]butanoyl]amino]-3-hydroxypropanoyl]amino]butanoyl]amino]-3-hydroxypropanoyl]amino]acetyl]-[Aib2,Leu10,Leu16,Arg20,Leu27,Lys28]-Glucagon amide] (H-H[Aib]QGTFTSDLSKYLDLRRARDFVQWLLK([Gly-Ser-Glu-Ser-γGlu-γGlu-C18 diacid])T-NH2; N-terminus assumed), for which the IC50 at human GLP-1 receptor was 1.1 nM. Further, the “Purity loss; 14 days at 37° C.” value in data set [1] came out at 2%.
As to `CC(C)C[C@H](NC(=O)[C@H](Cc1ccc(O)cc1)NC(=O)[C@H](CCCCN)NC(=O)[C@H](CO)NC(=O)[C@H](CC(C)C)NC(=O)[C@H](CC(=O)O)NC(=O)[C@H](CO)NC(=O)[C@@H](NC(=O)[C@H](Cc1ccccc1)NC(=O)[C@@H](NC(=O)CNC(=O)[C@H](CCC(N)=O)NC(=O)C(C)(C)NC(=O)[C@@H](N)Cc1c[nH]cn1)[C@@H](C)O)[C@@H](C)O)C(=O)N[C@@H](CC(=O)O)C(=O)N[C@@H](CO)C(=O)N[C@@H](CCCNC(=N)N)C(=O)N[C@@H](CCCNC(=N)N)C(=O)N[C@@H](C)C(=O)N[C@@H](CCCNC(=N)N)C(=O)N[C@@H](CCC(=O)O)C(=O)N[C@@H](Cc1ccccc1)C(=O)N[C@H](C(=O)N[C@@H](CCC(N)=O)C(=O)N[C@@H](Cc1c[nH]c2ccccc12)C(=O)N[C@@H](CC(C)C)C(=O)N[C@@H](CC(C)C)C(=O)N[C@@H](CCCCNC(=O)CC[C@H](NC(=O)CC[C@H](NC(=O)COCCOCCNC(=O)COCCOCCNC(=O)CC[C@H](NC(=O)CCCCCCCCCCCCCCCCC(=O)O)C(=O)O)C(=O)O)C(=O)O)C(=O)N[C@H](C(N)=O)[C@@H](C)O)C(C)C` [Example 56, N^ε28-[(4S)-4-carboxy-4-[[(4S)-4-carboxy-4-[[2-[2-[2-[[2-[2-[2-[[(4S)-4-carboxy-4-(17-carboxyheptadecanoylamino)butanoyl]amino]ethoxy]ethoxy]acetyl]amino]ethoxy]ethoxy]acetyl]amino]butanoyl]amino]butanoyl]-[Aib2,Leu10,Arg20,Glu21,Leu27,Lys28]-Glucagon amide] (H-H[Aib]QGTFTSDLSKYLDSRRAREFVQWLLK([γGlu-γGlu-AEEA-AEEA-γGlu-C18 diacid])T-NH2), on human GLP-1 receptor, the IC50 amounted to 0.3 nM. Besides, the “Purity loss; 14 days at 37° C.” value in data set [1] was 4%.
For the molecule `CC(C)C[C@H](NC(=O)[C@H](Cc1ccc(O)cc1)NC(=O)[C@H](CCCCN)NC(=O)[C@H](CO)NC(=O)[C@H](CC(C)C)NC(=O)[C@H](CC(=O)O)NC(=O)[C@H](CO)NC(=O)[C@@H](NC(=O)[C@H](Cc1ccccc1)NC(=O)[C@@H](NC(=O)CNC(=O)[C@H](CCC(N)=O)NC(=O)C(C)(C)NC(=O)[C@@H](N)Cc1c[nH]cn1)[C@@H](C)O)[C@@H](C)O)C(=O)N[C@@H](CCC(=O)O)C(=O)N[C@@H](CO)C(=O)N[C@@H](CCCNC(=N)N)C(=O)N[C@@H](CCCNC(=N)N)C(=O)N[C@@H](C)C(=O)N[C@@H](CCCNC(=N)N)C(=O)N[C@@H](CCC(=O)O)C(=O)N[C@@H](Cc1ccccc1)C(=O)N[C@H](C(=O)N[C@@H](CCC(N)=O)C(=O)N[C@@H](Cc1c[nH]c2ccccc12)C(=O)N[C@@H](CC(C)C)C(=O)N[C@@H](CC(C)C)C(=O)N[C@@H](CCCCNC(=O)CC[C@H](NC(=O)CC[C@H](NC(=O)COCCOCCNC(=O)COCCOCCNC(=O)CC[C@H](NC(=O)CC[C@H](NC(=O)CCCCCCCCCCCCCCCCC(=O)O)C(=O)O)C(=O)O)C(=O)O)C(=O)O)C(=O)N[C@H](C(N)=O)[C@@H](C)O)C(C)C` [Example 60, N^ε28-[(4S)-4-carboxy-4-[[(4S)-4-carboxy-4-[[2-[2-[2-[[2-[2-[2-[[(4S)-4-carboxy-4-[[(4S)-4-carboxy-4-(17-carboxyheptadecanoylamino)butanoyl]amino]butanoyl]amino]ethoxy]ethoxy]acetyl]amino]ethoxy]ethoxy]acetyl]amino]butanoyl]amino]butanoyl]-[Aib2,Leu10,Glu15,Arg20,Glu21,Leu27,Lys28]-Glucagon amide] (H-H[Aib]QGTFTSDLSKYLESRRAREFVQWLLK([γGlu-γGlu-AEEA-AEEA-γGlu-γGlu-C18 diacid])T-NH2; N-terminus assumed), on human GLP-1 receptor, the IC50 worked out at 0.2 nM. Moreover, in data set [1], the “Purity loss; 14 days at 37° C.” value is recorded as 4%.
In the same order, the values of `CC(C)C[C@H](NC(=O)[C@H](Cc1ccc(O)cc1)NC(=O)[C@H](CCCCN)NC(=O)[C@H](CO)NC(=O)[C@H](CC(C)C)NC(=O)[C@H](CC(=O)O)NC(=O)[C@H](CO)NC(=O)[C@@H](NC(=O)[C@H](Cc1ccccc1)NC(=O)[C@@H](NC(=O)CNC(=O)[C@H](CCC(N)=O)NC(=O)C(C)(C)NC(=O)[C@@H](N)Cc1c[nH]cn1)[C@@H](C)O)[C@@H](C)O)C(=O)N[C@@H](CC(=O)O)C(=O)N[C@@H](C)C(=O)N[C@@H](CCCNC(=N)N)C(=O)N[C@@H](CCCNC(=N)N)C(=O)N[C@@H](C)C(=O)N[C@@H](CCCNC(=N)N)C(=O)N[C@@H](CC(=O)O)C(=O)N[C@@H](Cc1ccccc1)C(=O)N[C@H](C(=O)N[C@@H](CCC(N)=O)C(=O)N[C@@H](Cc1c[nH]c2ccccc12)C(=O)N[C@@H](CC(C)C)C(=O)N[C@@H](CC(C)C)C(=O)N[C@@H](CC(N)=O)C(=O)N[C@@H](CCCCNC(=O)CC[C@H](NC(=O)CC[C@H](NC(=O)COCCOCCNC(=O)COCCOCCNC(=O)CC[C@H](NC(=O)CCCCCCCCCCCCCCCCC(=O)O)C(=O)O)C(=O)O)C(=O)O)C(N)=O)C(C)C` [Example 65] (H-H[Aib]QGTFTSDLSKYLDARRARDFVQWLLNK([γGlu-γGlu-AEEA-AEEA-γGlu-C18 diacid])-NH2; N-terminus assumed) are 0.5 nM and 3%.

The record behind these values is patent publication US9474790B2, “Stable, protracted GLP-1/glucagon receptor co-agonists for medical use” (Novo Nordisk A/S, priority 2013, dated 2016).
